From PMC7419507, “In vitro Cas9-assisted editing of modular polyketide synthase genes to produce desired natural product derivatives” (Nature Communications, 2020)
Values joined by “and” are separate entries in the source; they are usually repeats but may differ in a detail not shown here. Identical values can stand only once.

Columns and labels:
[1] = Cytotoxicity assay (CellTiter-Glo, 72 h), Jurkat; assay type: cell-based; conditions: human, Jurkat cells (T lymphoma), raw data (replicates)
Outline: (§1)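 1000 cells/well; 4 h settle, then 2-fold serial dilutions (0.5% DMSO final), 72 h, 37 °C/5% CO2. Read-out: CellTiter-Glo luminescence. Media: RPMI1640 + 10% FBS (Jurkat, MESO-1; Jurkat also Glutamax), DMEM + 10% FBS (SKOV-3).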

T lymphoma Jurkat cells = assay: Cytotoxicity assay (CellTiter-Glo, 72 h), Jurkat; assay type: cell-based; conditions: raw data (replicates)
Outline: as §1

[2] = system: human ovarian adenocarcinoma SKOV-3 cells; assay: Cytotoxicity assay (CellTiter-Glo, 72 h), SKOV-3; assay type: cell-based; conditions: raw replicate data
Outline: as §1

[3] = Cytotoxicity assay (CellTiter-Glo, 72 h), SKOV-3; assay type: cell-based, human; conditions: human, raw replicate data, read-out: SKOV3 viability (%)
Outline: as §1

[4] = system: malignant pleural mesothelioma MESO-1 cells; assay: Cytotoxicity assay (CellTiter-Glo, 72 h), MESO-1; assay type: cell-based; conditions: raw replicate data
Outline: as §1

[5] = Cytotoxicity assay (CellTiter-Glo, 72 h), MESO-1; assay type: cell-based; conditions: human, MESO-1 malignant pleural mesothelioma cells, raw replicate data, read-out: MESO1 viability (%)
Outline: as §1

[6] = system: Jurkat, SKOV-3 and MESO-1 cells; assay: Cytotoxicity assay, statements for all tested cell lines together; assay type: cell-based; conditions: Jurkat, SKOV-3 and MESO-1 cells, 72 h
Outline: as §1

CO[C@@H]1C[C@H](C[C@@H](C)[C@@H]2CC(=O)[C@H](C)/C=C(\C)[C@@H](O)[C@@H](OC)C(=O)[C@H](C)C[C@H](C)/C=C/C=C/C=C(\C)[C@H](O)C[C@@H]3CC[C@@H](C)[C@@](O)(O3)C(=O)C(=O)N3CCCC[C@H]3C(=O)O2)CC[C@H]1O [Compound 17, (16R)-16-O-demethyl rapamycin]
viability at 72 h, 9.53674e-05 uM ([1]; conc 9.53674e-5 uM): 98.1%
viability at 72 h, 0.000190735 uM ([1]; conc 0.000190735 uM): 101%
viability at 72 h, 0.00038147 uM ([1]; conc 0.00038147 uM): 107%
viability at 72 h, 0.000762939 uM ([1]; conc 0.000762939 uM): 100%
viability at 72 h, 0.00152588 uM ([1]; conc 0.00152588 uM): 106%
viability at 72 h, 0.00305176 uM ([1]; conc 0.00305176 uM): 95.3%
viability at 72 h, 0.00610352 uM ([1]; conc 0.00610352 uM): 96.3%
viability at 72 h, 0.012207 uM ([1]; conc 0.012207 uM): 74.7%
viability at 72 h, 0.0244141 uM ([1]; conc 0.0244141 uM): 79%
viability at 72 h, 0.0488281 uM ([1]; conc 0.0488281 uM): 40%
viability at 72 h, 0.0976562 uM ([1]; conc 0.0976562 uM): 39.6%
viability at 72 h, 0.195312 uM ([1]; conc 0.195312 uM): 36.3%
viability at 72 h, 0.390625 uM ([1]; conc 0.390625 uM): 32.4%
viability at 72 h, 0.78125 uM ([1]; conc 0.78125 uM): 32.4%
viability at 72 h, 1.5625 uM ([1]; conc 1.5625 uM): 29.2%
viability at 72 h, 3.125 uM ([1]; conc 3.125 uM): 28.8%
viability at 72 h, 6.25 uM ([1]; conc 6.25 uM): 28.5%
viability at 72 h, 12.5 uM ([1]; conc 12.5 uM): 30.5%
viability at 72 h, 25 uM ([1]; conc 25 uM): 28.8%
viability at 72 h, 50 uM ([1]; conc 50 uM): 21.6%
Jurkat viability (%) (T lymphoma Jurkat cells; conc 9.53674e-5 uM): 104.2% and 104.9%
Jurkat viability (%) (T lymphoma Jurkat cells; conc 0.000190735 uM): 98.3% and 107.4%
Jurkat viability (%) (T lymphoma Jurkat cells; conc 0.00038147 uM): 107.2% and 107.3%
Jurkat viability (%) (T lymphoma Jurkat cells; conc 0.000762939 uM): 99.4%
Jurkat viability (%) (T lymphoma Jurkat cells; conc 0.00152588 uM): 99.3% and 104.0%
Jurkat viability (%) (T lymphoma Jurkat cells; conc 0.00305176 uM): 97.0% and 104.1%
Jurkat viability (%) (T lymphoma Jurkat cells; conc 0.00610352 uM): 89.4% and 97.3%
Jurkat viability (%) (T lymphoma Jurkat cells; conc 0.012207 uM): 81.9% and 78.2%
Jurkat viability (%) (T lymphoma Jurkat cells; conc 0.0244141 uM): 72.3% and 67.5%
Jurkat viability (%) (T lymphoma Jurkat cells; conc 0.0488281 uM): 50.1% and 57.1%
Jurkat viability (%) (T lymphoma Jurkat cells; conc 0.0976562 uM): 39.4% and 41.6%
Jurkat viability (%) (T lymphoma Jurkat cells; conc 0.195312 uM): 33.7% and 37.9%
Jurkat viability (%) (T lymphoma Jurkat cells; conc 0.390625 uM): 35.4% and 34.2%
Jurkat viability (%) (T lymphoma Jurkat cells; conc 0.78125 uM): 31.2% and 32.6%
Jurkat viability (%) (T lymphoma Jurkat cells; conc 1.5625 uM): 28.2% and 33.2%
Jurkat viability (%) (T lymphoma Jurkat cells; conc 3.125 uM): 27.7% and 29.4%
Jurkat viability (%) (T lymphoma Jurkat cells; conc 6.25 uM): 29.5%
Jurkat viability (%) (T lymphoma Jurkat cells; conc 12.5 uM): 26.8%
Jurkat viability (%) (T lymphoma Jurkat cells; conc 25 uM): 30.6% and 29.0%
Jurkat viability (%) (T lymphoma Jurkat cells; conc 50 uM): 21.7% and 20.3%
SKOV3 viability (%) ([2]; conc 9.53674e-5 uM): 109.3% and 114.5%
SKOV3 viability (%) ([2]; conc 0.000190735 uM): 90.8% and 99.6%
SKOV3 viability (%) ([2]; conc 0.00038147 uM): 115.4% and 113.9%
SKOV3 viability (%) ([2]; conc 0.000762939 uM): 109.0% and 102.3%
SKOV3 viability (%) ([2]; conc 0.00152588 uM): 112.3% and 106.1%
SKOV3 viability (%) ([2]; conc 0.00305176 uM): 107.9%
SKOV3 viability (%) ([2]; conc 0.00610352 uM): 101.8% and 106.6%
SKOV3 viability (%) ([2]; conc 0.012207 uM): 96.6% and 104.0%
SKOV3 viability (%) ([2]; conc 0.0244141 uM): 95.8%
SKOV3 viability (%) ([2]; conc 0.0488281 uM): 79.4% and 88.5%
SKOV3 viability (%) ([2]; conc 0.0976562 uM): 86.2% and 76.7%
SKOV3 viability (%) ([2]; conc 0.195312 uM): 69.8% and 72.4%
SKOV3 viability (%) ([2]; conc 0.390625 uM): 81.8% and 79.5%
SKOV3 viability (%) ([2]; conc 0.78125 uM): 70.7%
SKOV3 viability (%) ([2]; conc 1.5625 uM): 65.2% and 67.1%
SKOV3 viability (%) ([2]; conc 3.125 uM): 69.1%
SKOV3 viability (%) ([2]; conc 6.25 uM): 64.7% and 66.1%
SKOV3 viability (%) ([2]; conc 12.5 uM): 62.1% and 61.3%
SKOV3 viability (%) ([2]; conc 25 uM): 65.7% and 67.6%
SKOV3 viability (%) ([2]; conc 50 uM): 57.2% and 61.6%
viability at 72 h, 9.53674e-05 uM ([3]; SKOV-3 cells (ovarian adenocarcinoma), conc 9.53674e-5 uM): 108%
viability at 72 h, 0.000190735 uM ([3]; SKOV-3 cells (ovarian adenocarcinoma), conc 0.000190735 uM): 88.6%
viability at 72 h, 0.00038147 uM ([3]; SKOV-3 cells (ovarian adenocarcinoma), conc 0.00038147 uM): 109%
viability at 72 h, 0.000762939 uM ([3]; SKOV-3 cells (ovarian adenocarcinoma), conc 0.000762939 uM): 108%
viability at 72 h, 0.00152588 uM ([3]; SKOV-3 cells (ovarian adenocarcinoma), conc 0.00152588 uM): 108%
viability at 72 h, 0.00305176 uM ([3]; SKOV-3 cells (ovarian adenocarcinoma), conc 0.00305176 uM): 107%
viability at 72 h, 0.00610352 uM ([3]; SKOV-3 cells (ovarian adenocarcinoma), conc 0.00610352 uM): 103%
viability at 72 h, 0.012207 uM ([3]; SKOV-3 cells (ovarian adenocarcinoma), conc 0.012207 uM): 97.7%
viability at 72 h, 0.0244141 uM ([3]; SKOV-3 cells (ovarian adenocarcinoma), conc 0.0244141 uM): 95.9%
viability at 72 h, 0.0488281 uM ([3]; SKOV-3 cells (ovarian adenocarcinoma), conc 0.0488281 uM): 84.3%
viability at 72 h, 0.0976562 uM ([3]; SKOV-3 cells (ovarian adenocarcinoma), conc 0.0976562 uM): 77.9%
viability at 72 h, 0.195312 uM ([3]; SKOV-3 cells (ovarian adenocarcinoma), conc 0.195312 uM): 70%
viability at 72 h, 0.390625 uM ([3]; SKOV-3 cells (ovarian adenocarcinoma), conc 0.390625 uM): 78.2%
viability at 72 h, 12.5 uM ([3]; SKOV-3 cells (ovarian adenocarcinoma), conc 12.5 uM): 65%
viability at 72 h, 25 uM ([3]; SKOV-3 cells (ovarian adenocarcinoma), conc 25 uM): 64.3%
viability at 72 h, 50 uM ([3]; SKOV-3 cells (ovarian adenocarcinoma), conc 50 uM): 62.5%
viability at 72 h, 0.78125 uM ([3]; SKOV-3 ovarian adenocarcinoma cells, conc 0.78125 uM): 71.6%
viability at 72 h, 1.5625 uM ([3]; SKOV-3 ovarian adenocarcinoma cells, conc 1.5625 uM): 72.2%
viability at 72 h, 3.125 uM ([3]; SKOV-3 ovarian adenocarcinoma cells, conc 3.125 uM): 67.3%
viability at 72 h, 6.25 uM ([3]; SKOV-3 ovarian adenocarcinoma cells, conc 6.25 uM): 66.2%
MESO1 viability (%) ([4]; conc 9.53674e-5 uM): 101.2% and 92.1%
MESO1 viability (%) ([4]; conc 0.000190735 uM): 91.6% and 98.7%
MESO1 viability (%) ([4]; conc 0.00038147 uM): 104.8% and 96.5%
MESO1 viability (%) ([4]; conc 0.000762939 uM): 94.3% and 95.5%
MESO1 viability (%) ([4]; conc 0.00152588 uM): 93.6% and 93.5%
MESO1 viability (%) ([4]; conc 0.00305176 uM): 90.4% and 91.1%
MESO1 viability (%) ([4]; conc 0.00610352 uM): 88.7% and 90.9%
MESO1 viability (%) ([4]; conc 0.012207 uM): 91.2%
MESO1 viability (%) ([4]; conc 0.0244141 uM): 80.2% and 88.3%
MESO1 viability (%) ([4]; conc 0.0488281 uM): 80.6% and 75.2%
MESO1 viability (%) ([4]; conc 0.0976562 uM): 77.6% and 79.5%
MESO1 viability (%) ([4]; conc 0.195312 uM): 74.7% and 70.5%
MESO1 viability (%) ([4]; conc 0.390625 uM): 76.8% and 75.4%
MESO1 viability (%) ([4]; conc 0.78125 uM): 70.1% and 72.2%
MESO1 viability (%) ([4]; conc 1.5625 uM): 74.3% and 71.9%
MESO1 viability (%) ([4]; conc 3.125 uM): 66.5% and 67.5%
MESO1 viability (%) ([4]; conc 6.25 uM): 73.9% and 73.5%
MESO1 viability (%) ([4]; conc 12.5 uM): 65.3% and 66.5%
MESO1 viability (%) ([4]; conc 25 uM): 64.8% and 66.6%
MESO1 viability (%) ([4]; conc 50 uM): 62.7% and 65.8%
viability at 72 h, 9.53674e-05 uM ([5]; conc 9.53674e-5 uM): 103%
viability at 72 h, 0.000190735 uM ([5]; conc 0.000190735 uM): 89.1%
viability at 72 h, 0.00038147 uM ([5]; conc 0.00038147 uM): 100%
viability at 72 h, 0.000762939 uM ([5]; conc 0.000762939 uM): 97.1%
viability at 72 h, 0.00152588 uM ([5]; conc 0.00152588 uM): 98.3%
viability at 72 h, 0.00305176 uM ([5]; conc 0.00305176 uM): 92.9%
viability at 72 h, 0.00610352 uM ([5]; conc 0.00610352 uM): 89.6%
viability at 72 h, 0.012207 uM ([5]; conc 0.012207 uM): 83.5%
viability at 72 h, 0.0244141 uM ([5]; conc 0.0244141 uM): 86.9%
viability at 72 h, 0.0488281 uM ([5]; conc 0.0488281 uM): 85.1%
viability at 72 h, 0.0976562 uM ([5]; conc 0.0976562 uM): 78.9%
viability at 72 h, 0.195312 uM ([5]; conc 0.195312 uM): 71.5%
viability at 72 h, 0.390625 uM ([5]; conc 0.390625 uM): 79.6%
viability at 72 h, 0.78125 uM ([5]; conc 0.78125 uM): 73.1%
viability at 72 h, 1.5625 uM ([5]; conc 1.5625 uM): 71.7%
viability at 72 h, 3.125 uM ([5]; conc 3.125 uM): 72.9%
viability at 72 h, 6.25 uM ([5]; conc 6.25 uM): 74.2%
viability at 72 h, 12.5 uM ([5]; conc 12.5 uM): 72.1%
viability at 72 h, 25 uM ([5]; conc 25 uM): 67.4%
viability at 72 h, 50 uM ([5]; conc 50 uM): 61.5%
Effect on cell viability, in words [6]: slightly suppressed the cell viabilities
